# “And” between values parts separate entries of the source, which are not always exact repeats. Equal entries are not always repeated. Where two headings read alike, the source gives them in different places.
# Tests used:
# M. avium = experiment: microbe, parasite or virus in culture; type: cell-based; conditions: Mycobacterium avium
# Acinetobacter baumannii = experiment: Broth dilution MIC (CLSI); type: cell-based
# Excerpt: (§1) Bacteria (Acinetobacter baumannii NCCP 14782, Citrobacter freundii NCCP 14766, Enterobacter aerogenes NCCP 14761, Escherichia coli NCCP 14762, Escherichia coli O157 NCCP 14541, Klebsiella pneumoniae NCCP 14764, Proteus mirabilis NCCP 14763, Proteus vulgaris NCCP 14765, Pseudomonas aeruginosa NCCP 14781, Salmonella Enteritidis NCCP 14771, Salmonella Paratyphi A NCCP 14759, Salmonella Typhimurium NCCP 16207, Serratia marcescens NCCP 14770, Shigella boydii NCCP 14745, Shigella dysenteriae NCCP 14746, Shigella flexneri NCCP 14744, Shigella sonnei NCCP 14773, Bacillus subtilis NCCP 11101, Corynebacterium diphtheriae NCCP 10353, Staphylococcus aureus MSSA NCCP 14780, Staphylococcus aureus MRSA NCCP 14769, Staphylococcus epidermidis NCCP 14768, Streptococcus pneumoniae NCCP 14774) and fungi (Aspergillus fumigatus NCCP 22454, Candida albicans NCCP 32557, Cryptococcus neoformans NCCP 32559, Microsporum canis NCCP 22454, Rhizopus oryzae NCCP 22458, Saccharomyces cerevisiae NCCP 32558, Trichophyton rubrum NCCP 22456) strains were obtained from the National Culture Collection for Pathogens (NCCP) (Chungbuk, Korea). The MIC of each agent was determined following the Clinical and Laboratory Standards Institute (CLSI).[40]
# Saccharomyces cerevisiae = experiment: Broth dilution MIC (CLSI); type: cell-based
# Excerpt: as §1
# Serratia marcescens = experiment: Broth dilution MIC (CLSI); type: cell-based
# Excerpt: as §1
# [1] = tested on: Staphylococcus epidermidis; experiment: Broth dilution MIC (CLSI); type: cell-based
# Excerpt: as §1
# Klebsiella pneumoniae = experiment: Broth dilution MIC (CLSI); type: cell-based
# Excerpt: as §1
# Bacillus subtilis = experiment: Broth dilution MIC (CLSI); type: cell-based
# Excerpt: as §1
# Proteus mirabilis = experiment: Broth dilution MIC (CLSI); type: cell-based
# Excerpt: as §1
# Candida albicans = experiment: Broth dilution MIC (CLSI); type: cell-based
# Excerpt: as §1
# Trichophyton rubrum = experiment: Broth dilution MIC (CLSI); type: cell-based
# Excerpt: as §1
# Escherichia coli O157 = experiment: Broth dilution MIC (CLSI); type: cell-based
# Excerpt: as §1
# Aspergillus fumigatus = experiment: Broth dilution MIC (CLSI); type: cell-based
# Excerpt: as §1
# Streptococcus pneumoniae = experiment: Broth dilution MIC (CLSI); type: cell-based
# Excerpt: as §1
# Escherichia coli = experiment: Broth dilution MIC (CLSI); type: cell-based
# Excerpt: as §1
# Shigella flexneri = experiment: Broth dilution MIC (CLSI); type: cell-based
# Excerpt: as §1
# Shigella dysenteriae = experiment: Broth dilution MIC (CLSI); type: cell-based
# Excerpt: as §1
# M. colombiense = experiment: microbe, parasite or virus in culture; type: cell-based; conditions: Mycobacterium colombiense
# M. tuberculosis H37Rv = experiment: microbe, parasite or virus in culture; type: cell-based, Mycobacterium tuberculosis; conditions: for MIC: Mycobacterium tuberculosis, H37RV, read-out: MIC
# in vitro [2] = type: cell-based; conditions: human
# Description: (§2) A549 human pulmonary epithelial cells (KCLB 10185), human embryonic kidney (HEK) 293 cells (KCLB 21573), human THP-1 leukemia cells (KCLB 40202), human neuroblastoma SH-SY5Y cells (KCLB 22266), Murine Raw 264.7 macrophages (KCLB 40071), and L929 murine fibroblasts (KCLB 10001) were purchased from the KCLB (Seoul, Korea). Cytotoxicity testing was performed using the MTT assay and the WST-1 cell viability assay as previously described.
# in vitro [3] = type: cell-based, murine; conditions: mouse
# Description: as §2
# [4] = tested on: XDR M. tuberculosis (KMRC 00203–00197); type: cell-based, Mycobacterium tuberculosis; conditions: for log reduction (CFU): 7 days
# M. tuberculosis H37Ra = experiment: microbe, parasite or virus in culture; type: cell-based, Mycobacterium tuberculosis; conditions: Mycobacterium tuberculosis, H37RA
compound,measurement,setting,value
"[H]/N=C(/N)N[C@H]1[C@H](O)[C@@H](O)[C@H](O[C@@H]2O[C@@H](C)[C@](O)(C=O)[C@H]2O[C@@H]2O[C@@H](CO)[C@H](O)[C@@H](O)[C@@H]2NC)[C@@H](N/C(N)=N\[H])[C@@H]1O [STR, streptomycin]",MIC,M. avium,3.1 µg/mL
same,MIC,Acinetobacter baumannii; read-out: MIC,6.3 µg/mL
same,MIC,Saccharomyces cerevisiae; read-out: MIC,> 100 µg/mL
same,MIC,Serratia marcescens; read-out: MIC,50 µg/mL
same,MIC,[1]; read-out: MIC,1.6 µg/mL
same,MIC,Klebsiella pneumoniae; read-out: MIC,3.1 µg/mL
same,MIC,Bacillus subtilis; read-out: MIC,0.8 µg/mL
same,MIC,Proteus mirabilis; read-out: MIC,6.3 µg/mL
same,MIC,Candida albicans; read-out: MIC,> 100 µg/mL
same,MIC,Trichophyton rubrum; read-out: MIC,> 100 µg/mL
same,MIC,Escherichia coli O157; read-out: MIC,6.3 µg/mL
same,MIC,Aspergillus fumigatus; read-out: MIC,> 100 µg/mL
same,MIC,Streptococcus pneumoniae; read-out: MIC,12.5 µg/mL
same,MIC,Escherichia coli; read-out: MIC,25 µg/mL
same,MIC,Shigella flexneri; read-out: MIC,25 µg/mL
same,MIC,Shigella dysenteriae; read-out: MIC,25 µg/mL
same,MIC,M. colombiense,0.8 µg/mL
same,MIC,M. tuberculosis H37Rv,0.4 µg/mL
"CO[C@H]1/C=C/O[C@@]2(C)Oc3c(C)c(O)c4c(O)c(c(/C=N/N5CCN(C)CC5)c(O)c4c3C2=O)NC(=O)/C(C)=C\C=C\[C@H](C)[C@H](O)[C@@H](C)[C@@H](O)[C@@H](C)[C@H](OC(C)=O)[C@@H]1C [RIF, rifampicin, reference compound]",MIC,M. avium,1.6 µg/mL
same,CC50,in vitro [2]; A549,> 500 µg/mL
same,CC50,in vitro [2]; HEK-293,> 500 µg/mL
same,CC50,in vitro [2]; SH-SY5Y,> 500 µg/mL
same,CC50,in vitro [2]; THP-1,> 500 µg/mL
same,MIC,Acinetobacter baumannii,3.1 µg/mL
same,MIC,Saccharomyces cerevisiae,> 100 µg/mL
same,MIC,Serratia marcescens,12.5 µg/mL
same,MIC,[1],0.05 µg/mL
same,MIC,Klebsiella pneumoniae,6.3 µg/mL
same,MIC,Bacillus subtilis,< 0.1 µg/mL
same,MIC,Proteus mirabilis,3.1 µg/mL
same,MIC,Candida albicans,> 100 µg/mL
same,MIC,Trichophyton rubrum,> 100 µg/mL
same,MIC,Escherichia coli O157,3.1 µg/mL
same,MIC,Aspergillus fumigatus,> 100 µg/mL
same,MIC,Streptococcus pneumoniae,0.05 µg/mL
same,MIC,Escherichia coli,6.3 µg/mL
same,MIC,Shigella flexneri,1.5 µg/mL
same,MIC,Shigella dysenteriae,1.6 µg/mL
same,MIC,M. colombiense,0.2 µg/mL
same,MIC,M. tuberculosis H37Rv,0.1 µg/mL
same,CC50,in vitro [3]; L929,> 500 µg/mL
same,CC50,in vitro [3]; Raw264.7,> 500 µg/mL
same,CFU (log),[4],4.63 and 4.77
same,"CFU (replicates1-3), single values",[4],56400 CFU and 14000 CFU and 26700 CFU and 25200 CFU and 51000 CFU and 59000 CFU and 55000 CFU and 48000 CFU and 53000 CFU and 44900 CFU and 67000 CFU (2×) and 75100 CFU and 66500 CFU and 63000 CFU and 65000 CFU and 35000 CFU and 41000 CFU
same,log reduction (CFU),[4]; at 12.5 μg/ml,0.6
"COC(=O)[C@@H]1CCC(=O)N1Cc1cc2ccc(OCc3ccccc3)cc2c2cc(OC)c(OC)cc12 [PP3S, Methyl (S)-1-{[3-(Benzyloxy)-6,7-dimethoxy-9-phenanthryl]methyl}-5-oxopyrrolidine-2-carboxylate]",MIC,M. avium,> 100 µg/mL
same,CC50,in vitro [2]; A549,> 500 µg/mL
same,CC50,in vitro [2]; HEK-293,7.8 µg/mL
same,CC50,in vitro [2]; SH-SY5Y,7.8 µg/mL
same,CC50,in vitro [2]; THP-1,> 500 µg/mL
same,MIC,M. tuberculosis H37Ra,1.6 µg/mL
same,MIC,Acinetobacter baumannii; read-out: MIC,> 100 µg/mL
same,MIC,Saccharomyces cerevisiae; read-out: MIC,> 100 µg/mL
same,MIC,Serratia marcescens; read-out: MIC,> 100 µg/mL
same,MIC,[1]; read-out: MIC,> 100 µg/mL
same,MIC,Klebsiella pneumoniae; read-out: MIC,> 100 µg/mL
same,MIC,Bacillus subtilis; read-out: MIC,> 100 µg/mL
same,MIC,Proteus mirabilis; read-out: MIC,> 100 µg/mL
same,MIC,Candida albicans; read-out: MIC,> 100 µg/mL
same,MIC,Trichophyton rubrum; read-out: MIC,> 100 µg/mL
same,MIC,Escherichia coli O157; read-out: MIC,> 100 µg/mL
same,MIC,Aspergillus fumigatus; read-out: MIC,> 100 µg/mL
same,MIC,Streptococcus pneumoniae; read-out: MIC,> 100 µg/mL
same,MIC,Escherichia coli; read-out: MIC,> 100 µg/mL
same,MIC,Shigella flexneri; read-out: MIC,> 100 µg/mL
same,MIC,Shigella dysenteriae; read-out: MIC,> 100 µg/mL
same,MIC,M. colombiense,> 100 µg/mL
same,in vitro antitubercular activities (S-form vs R-form),M. tuberculosis H37Rv,had in vitro antitubercular activities
same,MIC,M. tuberculosis H37Rv,1.6 µg/mL
same,CC50,in vitro [3]; L929,> 500 µg/mL
same,CC50,in vitro [3]; Raw264.7,> 500 µg/mL
same,CFU (log),[4],4.83 and 4.91
same,"CFU (replicates1-3), single values",[4],41000 CFU and 66100 CFU and 72200 CFU and 71300 CFU and 95100 CFU and 88700 CFU and 98900 CFU and 41200 CFU and 40500 CFU and 105000 CFU and 75800 CFU and 72700 CFU and 52300 CFU and 61000 CFU and 63200 CFU and 62900 CFU and 137000 CFU and 98200 CFU
same,log reduction (CFU),[4]; at 0.8 μg/ml,0.5
same,log reduction (CFU),[4]; at 1.6 μg/ml,0.6

# Reference: PMC9154192 (PLoS Biology, 2022)
